In US20250162973A1, “METHODS OF SYNTHESIS AND USES OF AGRIMOL COMPOUNDS” (Versitech Limited, priority 2022, published 2025):
Read-outs that look alike come from different tables or passages of the source.

Columns and labels:
[1] = tested on: stem-like NCI-H460 xenograft; experiment: Cancer stem like xenograft model; type: in vivo, NOD/SCID mice; settings: AGB 3 mg/kg, tail intravenous injection
Procedure: In vivo anticancer efficacy of AGB was evaluated using the human tumor xenograft model, in which human cancer cells were inoculated into immune-deficiency mice. Briefly, twelve six-week-old (16-18 g) BALB/c nude mice were randomly divided into two groups and both received subcutaneous injection of NCI-H460 cells (2 million cells in 0.1 mL PBS) at its right flank of mice and tumor became palpable after three days of injection. Mice were received intravenous (i.v.) injections of AGB or vehicle control (10% DMSO and 0.05% Tween 80 in normal saline) every two days in two weeks. The length and width of tumor were measured by Vernier caliper and the body weight was monitored every two or three days. At the end of experiment, mice were sacrificed and decapitated. The liver, kidney, and tumor were collected and fixed in 4% formaldehyde for further haematoxylin and eosin (H&E) staining. All animal experiments in this project received human care and study protocols complied with the guidelines of the Laboratory Animal Services Centre of the University of Hong Kong. Tumor sizes and body weight were recorded before the drug injection every time and tumor volume (V) was calculated by the formula V=LW^2/2, where L is tumor length and W is tumor width. […]
The in vivo antitumor potential of AGB using the xenograft mouse model was assessed. […]

NCI-H460 spheres = experiment: Sphere formation assay (tumorsphere self-renewal); type: cell-based; settings: Homo sapiens, read-out: tumorsphere forming efficiency, inhibition; for inhibition at 1 µM: 1.0 μM AGB
Procedure: NCI-H460 cells were seeded at 3,000 cells/ml per well in specific sphere formation medium (DMEM/F12 supplemented with 20 ng/ml EGF, 20 ng/ml bFGF and 1×B-27) with or without AGB (DMSO as vehicle, 0.5 and 1.0 μM of AGB for the assay) in a 6-well Ultra Low Cluster Plate (Costar®). The concentration of DMSO was normalized to 0.5% in all wells and was 0.5%. The cells were incubated at 37° C. for five days and the spheres were photographed under an inverted microscope at 40× magnification. Primary tummorsphere were collected and enzymatically dissociated using trypsin to generate the secondary tummorsphere. The dissociated cells were re-plated at a density of 2,000 cells/mL for subsequent passages. The images were captured and four fields were randomly chosen and the relative areas occupied by the spheres were measured using ImageJ (National Institutes of Health, Bethesda, MD). Representative images were obtained from three independent experiments.

CS = target: T1, CS (Homo sapiens, UniProt O75390); experiment: CS catalytic activity; type: biochemical; settings: dose-dependent
T1 sequence (O75390 28-466): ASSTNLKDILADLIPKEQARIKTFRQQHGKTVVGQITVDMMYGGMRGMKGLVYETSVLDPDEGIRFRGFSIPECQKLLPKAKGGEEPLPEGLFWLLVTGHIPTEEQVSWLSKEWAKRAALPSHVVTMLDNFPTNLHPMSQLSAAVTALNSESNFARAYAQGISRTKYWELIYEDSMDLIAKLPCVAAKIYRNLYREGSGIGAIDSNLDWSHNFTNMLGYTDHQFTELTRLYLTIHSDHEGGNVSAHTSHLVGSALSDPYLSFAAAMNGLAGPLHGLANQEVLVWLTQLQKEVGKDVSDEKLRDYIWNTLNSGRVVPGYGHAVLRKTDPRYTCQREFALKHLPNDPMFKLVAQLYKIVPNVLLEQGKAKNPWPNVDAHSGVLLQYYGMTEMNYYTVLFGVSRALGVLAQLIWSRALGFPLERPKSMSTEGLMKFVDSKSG
Text: CS is localized within the mitochondrial matrix and is the key enzyme in the first step of the tricarboxylic acid (TCA) cycle that catalyzes the reaction between acetyl coenzyme A (acetyl CoA) and oxaloacetic acid to form citric acid. […] CS is responsible for the production of citrate in the TCA cycle that mediates mitochondrial aerobic respiration to affect the production of ATP production. Targeting at CS may be feasible to restore the abnormal expression of TCA cycle.

[2] = tested on: human cancer cell lines (MDA-MB-231, MCF-7, HepG2, HeLa, AGS, HCT116, SW480, SUNE-1, H460, HCC827, H1650, A549); experiment: MTT cell viability assay, panel of human cancer cell lines; type: cell-based; settings: Homo sapiens
Procedure: SUNE1 (nasopharyngeal carcinoma), AGS (gastric adenocarcinoma), HeLa (cervix adenocarcinoma), HepG2 (hepatocellular carcinoma), U-87 MG (human glioblastoma cell), U2OS (osteosarcoma), MCF-7 (breast adenocarcinoma), MDA-MB-231 (breast adenocarcinoma), HCT116 (colorectal carcinoma), SW480 (colorectal adenocarcinoma), NCI-H460 (large cell lung carcinoma), NCI-H1650 (adenocarcinoma lung carcinoma), HCC827 (adenocarcinoma lung carcinoma), A549 (lung carcinoma), and CCD-19Lu (human lung fibroblast normal cell) were all obtained from American Type Culture Collection (ATCC, Manassas, VA, USA). Minimum Essential Media (MEM, Gibco®, ThermoFisher Scientific), Dulbecco's Modified Eagle Medium (DMEM, Gibco®, ThermoFisher Scientific), and RPMI-1640 Medium (Gibco®, ThermoFisher Scientific) supplemented with 10% Fetal Bovine Serum (Gibco®, ThermoFisher Scientific), and 100 U/mL penicillin-streptomycin (Gibco™, ThermoFisher Scientific) were used for cell culture. Cells were placed into an incubator with 5% CO2 that temperature was set at 37° C. For subculturing cells, 0.05% Trypsin-EDTA (Gibco®) was used for detaching and a subcultivation ratio of 1:5 was used.
The cell viability assay was performed by a typical MTT assay. Briefly, 5*10^3 cells were seeded in the 96-well flat bottom plate and allowed to attach overnight. After drug treatment with a serial dilution from 100 μM for 48 h, 10 μL of MTT solution (5 mg/ml prepared in PBS, filtered) was added into each well and incubate for 4 h at 37° C. The formed formazan was then dissolved with SDS solution (10% SDS in 10 mM HCl) and followed the determination of absorbance at 590 nm by a microplate reader. The change in cell viability was then calculated for each drug concentration, then normalized to control. Dose response curves from each assay were fit to a Boltzmann sigmoidal function (GraphPad Prism8, version8.0.0). The cytotoxicity of AGB and its derivatives was determined by the calculation of IC50 value (half maximal inhibitory concentration) from fitted curves, which was the concentration of drug induced 50% cell viability.

**Q.** Which results are given for `CCCC(=O)c1c(O)c(Cc2c(O)c(Cc3c(O)c(C)c(OC)c(C(=O)CCC)c3O)c(O)c(C(=O)[C@@H](C)CC)c2O)c(O)c(C)c1OC` [AGB, Agrimol B]?
**A.** tumor growth inhibition rate [1]: 64%; inhibition at 1 µM (NCI-H460 spheres; NCI-H460, primary tumorspheres): 40.6%; inhibition at 0.5 µM (NCI-H460 spheres; NCI-H460, secondary tumorspheres, 0.5 μM AGB): 54.7%; inhibition at 1 µM (NCI-H460 spheres; NCI-H460, secondary tumorspheres): 69.7%; AGB concentration at which a significant decrease in the enzyme activity was observed (CS): 5 µM; IC50 ([2]; 48-h treatment, range over tested cancer cell lines, read-out: IC50 values for the tested cancer cell lines): 1.83 to 5.81 µM; IC50 ([2]; MTT assay, cancer cells, read-out: IC50 values against cancer cells): < 10 µM
